These results are taken from article PMC9585585, “Discovery of Small-Molecule Allosteric Inhibitors of PfATC as Antimalarials” (Journal of the American Chemical Society, 2022).

For assay [1], the target named is T1, HsATC (Homo sapiens, UniProt P27708).
T1 construct: ATCase domain of CAD; made in house; host or cells: E. coli BL21 star
T1 sequence (P27708 1918-2225 limits assumed): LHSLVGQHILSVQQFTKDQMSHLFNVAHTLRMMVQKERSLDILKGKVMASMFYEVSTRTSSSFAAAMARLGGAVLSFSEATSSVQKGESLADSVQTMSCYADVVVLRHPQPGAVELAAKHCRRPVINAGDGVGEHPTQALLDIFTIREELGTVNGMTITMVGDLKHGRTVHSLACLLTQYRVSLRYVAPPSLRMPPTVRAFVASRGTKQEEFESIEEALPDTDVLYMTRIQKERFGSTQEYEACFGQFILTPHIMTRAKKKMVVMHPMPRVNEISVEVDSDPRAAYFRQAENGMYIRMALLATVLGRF
The assay is described as follows: HsATC activity assay. Conditions: in vitro activity assay, 10 mM L-aspartate, 5 mM carbamoyl phosphate; read-out: HsATC IC50. Type of assay: biochemical. On the procedure: 417100μL of stop mix (two volumes of Antipyrine (26.5 mM 2,3-Dimethyl-1-phenyl-3-pyrazolin-5-
418one in 50% (v/v) sulfuric acid) and one volume of 2,3-Butanedione monoxime (80 mM 2,3-
419Butanedione monoxime in 5% (v/v) acetic acid). After plates were sealed with transparent sealing
(§1) 420tape to prevent evaporation and incubated overnight in the dark place at room temperature. After
421incubation, the plates were heated at 95 °C for 15 min in dark place, and kept for 30 min before
422measuring at 466 nm suing a Synergy H1 Hybrid Reader (BioTek). Analyses were performed using
423Microsoft Excel and Graph Pad Prism.
424HsATC activity assay. The enzymatic assay was performed as described herein above for
425enzymatic assay of PfATC with minor modifications. Briefly, the reaction was carried out at room
426temperature in a total volume of 150 μl of 10 mM L-aspartate and 5 mM carbamoyl phosphate
427saturated substrate solution in 50 mM Tris-Acetate buffer pH 8.3. hsATC was pre-incubated with
428inhibitor and L-Asp for 10 min at room temperature on a shaker. The reaction was initiated by
429adding CP and stopped after 5 min with […] color mix. Then the plate was covered by sealing
(§2) 430tape and kept in dark place at room temperature and then heated to 95 °C for 15min in dark and kept
431the plate in the dark for another 30 min before measuring the absorbance at 466 nm suing a Synergy
432H1 Hybrid Reader (BioTek). […]

Assay [2] addresses PfATC (Plasmodium falciparum, UniProt A0A5K1K910). The assay is described as follows: biochemical. The note with it: in vitro activity assay, PfATC 50 nM, 2 mM CP, 1 mM aspartate; read-out: PfATC IC50. On the procedure: Following washing with Lysis buffer
Excess imidazole was removed and the His-tag was cleaved
400Then, the sample was loaded onto a 5 ml HiTrap SP HP column (GE Healthcare, USA) and
410PfATC activity assay. Enzymatic reactions were performed in a total volume of 150 µL in 50 mM
Small-molecule dose-response curves were
The reactions were initiated by adding CP and quenched after 10 min with
After plates were sealed with transparent sealing
as §1
Analyses were performed using
The enzymatic assay was performed as described herein above for
Briefly, the reaction was carried out at room
The reaction was initiated by
Then the plate was covered by sealing
as §2

For assay [3], the system named is P. falciparum 3D7. The assay is described as follows: Growth-inhibition assay of P. falciparum (SYBR Green I). The note with it: P. falciparum 3D7, 96 h; read-out: EC50 against blood stage 3D7 cultures. Type of assay: cell-based, Plasmodium falciparum. On the procedure: 488Cell culture and growth-inhibition assay of P. falciparum. P. falciparum 3D7 parasites
489(Wellcome Trust Dundee) were maintained in continuous culture at 37 °C and an atmosphere
490consisting of 90% N 2, 5% O2, and 5% CO2 as described previously 30 with modifications.31
491Parasites were maintained in 25 mM 4-(2-hydroxyethyl)-1-piperazineethanesulfonic acid (HEPES)
492and 11.9 mM sodium bicarbonate buffered RPMI 1640 medium supplemented with D-glucose
493(11 mM), hypoxanthine, AlbuMAX-I (0.5% w/v), and 10 µg/mL gentamicin. 0+ blood was
494provided by “Hospital Novo Atibaia” (Brazil) in agreement with the ethics committee at ICB-USP.
495Compounds were tested for their inhibitory effect against P. falciparum 3D7 conducting SYBR
496Green I (Invitrogen) drug assays as reported. 32, 33 Briefly, two-fold serial dilutions of compounds
497were prepared in 96-well plates starting from 100 and 20 µM in technical triplicate and incubated
498for 96 h under normal growth conditions using an initial parasitemia of 0.5% and a hematocrit of
4992% in a volume of 100 µL per well. Parasite proliferation was measured by quantifying DNA via
500SYBR Green I emitted fluorescence in the wells after addition of 100 µL lysis buffer supplemented
501with SYBR Green I (0.02% v/v) and incubation for 1 h at room temperature in the dark.
502Fluorescence was quantified using a CLARIOstar plate reader (BMG Labtech, Germany) at
503excitation and emission wavelength bands of 485 (± 9) and 530 (± 12) nm, respectively. Focal and
504gain adjustment was performed using the negative controls (highest expected fluorescence signal).
505Data was acquired via the CLARIOstar (V5.20) and MARS software, manually normalized, and
506plotted using the nonlinear regression curve fit implemented in GraphPad Prism as described below
507in more detail. Non-treated parasites, highest solvent concentration on parasites, and highest drug
508concentration in medium were used as controls for maximal growth, solvent control, and native
509drug fluorescence, respectively.
511Nonlinear regression fit and analysis of dose-response drug assays. Nonlinear regression as
512implemented in GraphPad Prism 8.4.3 (log(inhibitor) vs. response – Variable slope (four
513parameters)) was used to fit the measured data to interpolate the IC 50 value from the curve. No
514specific model was applied. Data was pre-processed by min-max-scaling according to the
517where y is the fluorescence signal in each well, y minimum the background fluorescence, and ymaximum
518the highest measured fluorescence signal in the untreated wells. Drug concentrations (in µM) were
519transformed to the log(10)of the values. Means of each independent experiment were plotted as
520individual values, and the SD of the mean from the means shown as error bars. The test for
521homoscedasticity was performed to confirm if no weighting of values was appropriate.

The subject of assay [4] is malarial parasite. More on the design: method as in PMID 32129597. Conditions: cited from earlier work.

Sequence of PfATC (A0A5K1K910 entry or part of it): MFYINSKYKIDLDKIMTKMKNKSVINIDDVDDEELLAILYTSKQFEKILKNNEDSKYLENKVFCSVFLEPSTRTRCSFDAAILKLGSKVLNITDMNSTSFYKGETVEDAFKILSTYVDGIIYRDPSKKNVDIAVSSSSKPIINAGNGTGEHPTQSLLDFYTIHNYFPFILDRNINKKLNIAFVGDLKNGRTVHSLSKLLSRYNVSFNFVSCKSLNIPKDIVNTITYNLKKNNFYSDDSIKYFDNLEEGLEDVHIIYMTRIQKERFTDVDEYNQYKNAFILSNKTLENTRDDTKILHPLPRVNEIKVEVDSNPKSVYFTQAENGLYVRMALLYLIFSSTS

Take `CC(C)(C)OC(=O)Nc1sc(-c2ccccc2)cc1C(=O)NCC(O)c1ccccc1` (stereo not drawn) [BDA-16]: the IC50 was 870 nM in assay [1] and 6080 nM in assay [2]. Moreover, in assay [3], the EC50 was 1960 nM.

For `COc1ccccc1CCNC(=O)c1cc(-c2ccccc2)sc1NC(=O)OC(C)(C)C` [BDA-18], the IC50 turned out to be 259 nM in assay [1] and 1330 nM in assay [2]. Besides, the EC50 in assay [3] worked out at 1850 nM.

Regarding `CC(C)CCNc1sc(-c2ccccc2)cc1C(=O)NCCc1ccc(O)cc1` [BDA-19], the IC50 in assay [1] was 678 nM; in assay [2], 4070 nM. In addition, the EC50 in assay [3] was 2330 nM.

As to `CC(C)(C)OC(=O)Nc1sc(-c2ccccc2)cc1C(=O)NCCc1ccc(C(F)(F)F)cc1` [BDA-21], the figures for the IC50 in assay [1] and in assay [2] were 620 nM and 554 nM, respectively. Moreover, the EC50 in assay [3] came to 2420 nM.

On to `CC(C)(C)OC(=O)Nc1sc(-c2ccccc2)cc1C(=O)NCCc1ccc(Br)cc1` [BDA-22], for which the results for the IC50 in assay [1] and in assay [2] were 573 nM and 473 nM, respectively. For the same compound, the EC50 in assay [3] stood at 2890 nM.

In the case of `CC(C)(C)OC(=O)Nc1sc(-c2ccccc2)cc1C(=O)NCCN1CCOCC1` [BDA-57], the IC50 in assay [1] was 381 nM; in assay [2], 800 nM.

For the compound `Nc1sc(Cc2ccccc2)cc1C(=O)NCCc1ccc(O)cc1` [BDA-58], the IC50 in assay [1] came to 1230 nM; in assay [2], 4830 nM.

As to `CC(C)(C)OC(=O)Nc1sc(Cc2ccccc2)cc1C(=O)NCCc1ccc(O)cc1` [BDA-59], the IC50 stood at 2590 nM in assay [1] and 3110 nM in assay [2].

For `CC(C)(C)OC(=O)Nc1sc(-c2ccccc2)c(-c2ccccc2)c1C(=O)NCCc1ccc(O)cc1` [BDA-60], the IC50 in assay [1] turned out to be 1050 nM; in assay [2], 2010 nM.

For `CC(C)c1cc(C(=O)NCCc2ccc(O)cc2)c(N)s1` [BDA-61], the figures for the IC50 in assay [1] and in assay [2] were 862 nM and 1980 nM, respectively.

Regarding `CC(C)c1cc(C(=O)NCCc2ccc(O)cc2)c(NC(=O)OC(C)(C)C)s1` [BDA-62], the IC50 in assay [1] was determined as 1120 nM; in assay [2], 2200 nM.

For `CC(C)(C)OC(=O)Nc1sc(-c2ccccc2)cc1C(=O)N1CCN(c2ccc(O)cc2)CC1` [BDA-63], the IC50 is 250 nM in assay [1] and 1090 nM in assay [2].

As to `COC(=O)c1c(NC(=O)OC(C)(C)C)sc2c1CCN(Cc1ccccc1)C2` [BDA-64], the IC50 turned out to be 704000 nM in assay [1] and 86900 nM in assay [2].

In the case of `COC(=O)c1c(NC(=O)OC(C)(C)C)sc2c1CCC(c1ccccc1)C2` (stereo not drawn) [BDA-65], the IC50 worked out at 5170 nM in assay [1] and 6420 nM in assay [2].

As to `COC(=O)c1c(N)sc2c1CCC(c1ccccc1)C2` (stereo not drawn) [BDA-66], the results for the IC50 in assay [1] and in assay [2] were 764 nM and 1290 nM, respectively.

In the case of `COC(=O)c1c(NC(=O)OC(C)(C)C)sc2c1CCCC2` [BDA-67], the IC50 in assay [1] was found to be 1010 nM; in assay [2], 1360 nM.

With `COC(=O)c1cc(-c2ccc3c(c2)OCCO3)sc1NC(=O)OC(C)(C)C` [BDA-69], the IC50 in assay [1] came out at 1030 nM; in assay [2] it was 1050 nM.

For the compound `N#CC1(C(=O)Nc2sc(-c3ccccc3)cc2C(=O)NCCc2ccc(O)cc2)CC1` [BDA-70], the results for the IC50 in assay [1] and in assay [2] were 556 nM and 876 nM, respectively.

With `O=C(O)C[C@H](NC(=O)CP(=O)(O)O)C(=O)O` [PALA, N-(phosphonoacetyl)-L-aspartate], the “inhibitory effects in ex vivo experiments” value in assay [4] is “no inhibitory effects”.
